Measurements: patent US20250313530A1, “SMALL MOLECULE INHIBITORS OF INTERLEUKIN-4 AND USES THEREOF” (Trustees of Boston University, priority 2024, published 2025)
Several values for one entry are separate records, joined by “and”; a condition that tells them apart may be missing. Equal entries are not always repeated. Entries after “also recorded” stand apart in the source; their conditions may differ. Where two headings read alike, the source gives them in different places.

Legend:
[1] = target: T1, IL-4 (Homo sapiens, UniProt P05112); assay: HEK-Blue IL-4/IL-13 reporter assay, IL-4 inhibition; format: cell-based; settings: for % Inhibition / inhibition at 10 µM: 10 μM, IL-4, HEK Blue IL-4/IL-13 reporter assay; for inhibition at 10 µM: HEK-Blue; for EC50: dose response, IL-4 inhibition; for Hill coefficient: fit of dose response in HEK Blue IL-4/IL-13 reporter assay
T1 construct: purchased Acros Biosystems IL4-H4218; host or cells: HEK-293
T1 sequence (P05112 25-153): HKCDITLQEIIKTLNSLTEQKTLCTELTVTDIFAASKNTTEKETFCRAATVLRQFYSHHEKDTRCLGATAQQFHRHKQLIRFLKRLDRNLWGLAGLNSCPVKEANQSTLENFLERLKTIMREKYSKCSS
Protocol: HEK-Blue IL-4/IL-13 Inhibition assay. HEK-Blue IL-4/IL-13 reporter cell lines were purchased from Invivogen and cultured in DMEM with 10% Heat Inactivated Fetal Bovine Serum (FBS), 100 U/ml-100 μg/ml Pen-Strep, 10 μg/ml blasticidin, 100 μg/ml Normocin and 100 μg/ml Zeocin. Cells were tested for secreted embryonic alkaline phosphatase (SEAP) production induced by IL-4 alone prior to small molecule screening.
22.5 μl of small molecule in DMEM 4% DMSO was added to 22.5 μl of 1 ng/ml IL-4 in DMEM in a non-binding 96-well reaction plate for 30 minutes at room temperature. The reaction plate was further incubated for 30-60 min at 37° C. HEK-Blue IL-4/IL-13 reporter cell line was used between passages 11-17. […] Measurements were done in triplicate. The plate was incubated for ˜22-24 hours at 37° C./5% CO2. Quanti-Blue dye was prepared as per the manufacturer's recommendation and 160 μl was dispensed in each well of a 96-well plate (avoid edges to avoid evaporation), 40 μl of cell supernatant was added to the same plate and incubated for 3 hours at 37° C./5% CO2. Optical density was then measured at 650 nm using Molecular Devices SpectraMax M5 Microplate reader. Data was analyzed and plotted using GraphPad Prism 9.2.0.

[2] = test system: IL-4 induced STAT-6 phosphorylation in Ramos B lymphocytes (type I IL-4 receptor); assay: Ramos STAT-6 phosphorylation assay (western blot); format: cell-based; settings: for inhibition at 0.5 µM: read-out: percent inhibition of STAT-6 phosphorylation; for inhibition of phosphorylation of STAT-6: 50 nM
Protocol: Ramos cells were purchased from ATCC and maintained in RMPI-1640 with 10% heat-inactivated Fetal Bovine Serum. Cells used for assays were between passages 4 and 8. […] Undiluted cell lysates were run SDS-PAGE and transferred to Immunoblot PVDF membrane using Biorad equipment. Membranes were incubated with 1:1000 primary antibody overnight at 4° C. Membranes were then incubated with 1:50,000 dilution secondary for 1 hour at room temperature. Membranes were then exposed to Femto ECL for 5 minutes and imaged using a Bio-Rad Gel Doc. The brightness/contrast was adjusted in FIJI and the area under the curve of each lane was quantified. The phosphorylated STAT-6 to STAT-6 ratio was calculated and normalized to the amount of total STAT-6. The data was plotted and analyzed using GraphPad Prism 9.2.0.

[3] = test system: murine IL-4 induced STAT-6 phosphorylation in RAW 264.7 macrophages; assay: RAW 264.7 STAT-6 phosphorylation assay (western blot); format: cell-based
Protocol: RAW 264.7 cells were purchased from ATCC and maintained in DMEM with 10% heat-inactivated Fetal Bovine Serum. Cells used for assays were between passages 3 and 5. […] The undiluted cell lysates were run SDS-PAGE followed by transfer to Immunoblot PVDF membrane using Biorad equipment. Membranes were incubated with 1:1000 primary antibody overnight at 4° C. Membranes were then incubated with 1:50,000 dilution secondary for 1 hour at room temperature. Membranes were then exposed to Femto ECL for 5 minutes and imaged using a Bio-Rad Gel Doc. The brightness/contrast was adjusted in FIJI and the area under the curve of each lane was quantified. The phosphorylated STAT-6 to STAT-6 ratio was calculated and normalized to the amount of total STAT-6. The data was plotted and analyzed using GraphPad Prism 8.

[4] = test system: B16-F10 cells; assay: In vitro cytotoxicity (CellTiter-Glo); format: cell-based; settings: up to 25 μM
Protocol: CellTiter-Glo 2.0 purchased from Promega G9242) was used to measure cell viability with the Victor-3 plate reader (PerkinElmer) after 24 hours in concentrations of compound up to 25 μM. Vehicle was used as a negative control for both cytotoxicity and growth inhibition, methanol was used as a positive control for cytotoxicity, and 1% FBS was used as a positive control for growth inhibition.

[5] = Mouse hepatic microsome stability; format: in vitro ADME; settings: mouse hepatic microsomes
[6] = Mouse plasma stability; format: in vitro ADME
[7] = Human plasma stability; format: in vitro ADME
[8] = PAMPA membrane permeability; format: in vitro ADME; settings: 18 hours incubation
Protocol: PVDF membranes purchased from Bioassay Systems PAMPA-096 were coated with 5 μL of 4% Phosphatidylcholine (Lecithin, MP Biomedicals 0210214780) in dodecane. […] Permeability was calculated by Pv=C×ln (1−ODA/ODE) cm/s, where ODA is the absorbance of acceptor solution minus blank, and ODE the absorbance of the equilibrium standard minus blank, and C=7.72×10^−6 using an 18-hour incubation time.

[9] = target: T2, IL-13 (Homo sapiens, UniProt P35225); settings: previously reported; cited from earlier work
T2 sequence (P35225 25-146): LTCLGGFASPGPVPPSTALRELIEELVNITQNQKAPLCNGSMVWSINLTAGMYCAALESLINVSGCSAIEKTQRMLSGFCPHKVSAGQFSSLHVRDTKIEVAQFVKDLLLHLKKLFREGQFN

[10] = target: IL-4 induced STAT-6 phosphorylation in THP-1 monocytes (type II IL-4 receptor); settings: previously reported, read-out: EC50 of inhibition of STAT-6 phosphorylation; cited from earlier work
[11] = target: T2, IL-13; assay: HEK-Blue IL-4/IL-13 reporter assay, IL-13 inhibition; format: cell-based
Protocol: Prior to screening. […] The solution was added to preincubated cells in a 96-well culture plate. The supernatant was then incubated with Quanti-Blue dye for 3 hours and absorbance was measured at 650 nm. Data was analyzed and plotted using GraphPad Prism 9.2.0.

[12] = target: T3, soluble IL-4 (Homo sapiens, UniProt P05112); assay: Differential scanning fluorimetry (thermal shift), IL-4; format: binding; settings: soluble IL-4, 2 μM compound, 0.1% DMSO; read-out: Tm shift
T3 sequence (P05112 25-153): T1 sequence (P05112 25-153)
Protocol: DSF was performed using BioRad CFX384.

[13] = test system: IL-4 induced STAT-6 phosphorylation in THP-1 monocytes (type II IL-4 receptor); assay: THP-1 STAT-6 phosphorylation assay (western blot); format: cell-based
Protocol: THP-1 cells were received as a gift from the laboratory of Dr. Mark Grinstaff and maintained in RMPI-1640 with […] heat-inactivated Fetal Bovine Serum and 50 μM beta-mercaptoethanol. Cells used for assays were between passages 6 and 10, 10 ng/mL IL-4 was preincubated with experimental sample (vehicle or analogs) for 30 minutes at 37° C. 1 mL of each solution was then added to a pellet of 2 E6 THP-1 cells and pipetted up and down. THP-1 cells were incubated for 30 minutes in the incubator at 37 C/5% CO2. Cells were then spun down and lysed with 200 μL ice-cold RIPA buffer complete with phosphatase and protease inhibitors. Cell lysates were incubated on ice for 30 minutes, spun down and the supernatants were stored at −20° C. until western blot analysis. Undiluted cell lysates were run on SDS-PAGE and transferred to Immunoblot PVDF membrane using Biorad equipment. Membranes were incubated with 1:1000 primary antibody overnight at 4° C. Membranes were then incubated with 1:50,000 dilution secondary for 1 hour at room temperature. Membranes were then exposed to Femto ECL for 5 minutes and imaged using a Bio-Rad Gel Doc. The brightness/contrast was adjusted in FIJI and the area under the curve of each lane was quantified. The phosphorylated STAT-6 to STAT-6 ratio was calculated and normalized to the amount of total STAT-6. The data was plotted and analyzed using GraphPad Prism 9.2.0′.

[14] = target: T1, IL-4; assay: HEK-Blue IL-4/IL-13 reporter assay, IL-4 inhibition; format: cell-based; settings: control: cells with 10 μM compound only, no IL-4
[15] = test system: IL-4 induced pSTAT-6 in THP-1 cells; assay: THP-1 pSTAT-6 immunofluorescence
Protocol: IL-4 and analogs or vehicle (DMEM with 2% DMSO) were preincubated for 2 hours at 37° C. After the incubation, IL-4 or IL-4/analogs were incubated with THP-1 cells for 30 min at 37° C./5% CO2. Incubated cells were centrifuged for 5 min at 250×g. After aspirating the supernatant, cells were resuspended in 1×PBS and plated into a MatTek dish coated with Cell Tak adhesive for 30 minutes at room temperature. Cells were fixed with 4% Paraformaldehyde for 1 hour at room temperature. Cells were rinsed twice with 1×PBS and then permeabilized with 0.5% Triton-X for 1 hour at room temperature. Cells were rinsed again with 1×PBS, and blocked for an hour in superblock with 0.05% Tween-20, rinsed twice, and then incubated with anti-pSTAT-6 1:100 diluted in superblock 0.05% Tween-20 overnight at 4° C. (parafilmed to avoid evaporation). Cells were rinsed thrice with 1×PBS and then incubated with Mouse anti-rabbit IgG(H+L) Secondary Antibody-Alexa Fluor 647 for 1 hour at room temperature in the dark. […] Cells were rinsed twice with 1×PBS and left in 1 ml of 1×PBS. Confocal Imaging was done using an Olympus FV10i and images were processed using FIJI.

[16] = HEK Blue IL-4/IL-13 reporter assay, read-out: EC50

N#Cc1c(-c2ccc(O)c(O)c2)cc(-c2ccc(F)cc2)nc1N [Nico-52, 4-(3,4-dihydroxyphenyl)-6-(4fluorophenyl)-2-imino-1,2-dihydropyridine-3-carbonitrile, reference compound]
% Inhibition [1]: 97.6 ± 1.57% | inhibition at 10 µM ([1]; read-out: % Inhibition): > 97% | EC50 [1, 16]: 1.32 ± 0.38 µM | Hill coefficient [1]: 1.24±0.08 | inhibition at 0.5 µM ([2]; Homo sapiens, Ramos B lymphocytes, 500 nM): 14.6% | EC50 ([2]; Homo sapiens, Ramos B lymphocytes, western blot, read-out: EC50 of inhibition of STAT-6 phosphorylation): 1.03 µM | inhibition of phosphorylation of STAT-6 ([2]; Ramos B lymphocytes): minimum inhibition | EC50 ([3]; Mus musculus, RAW264.7, RAW 264.7 macrophages, murine IL-4, read-out: EC50 of reduction in pSTAT-6 levels): 1.28 µM | STAT-6 levels ([3]; total STAT-6, RAW 264.7): not affected | Cytotoxicity in B16-F10 cells (24 hours) [4]: no toxicity; also recorded: n.s. < 25 μM | Mouse hepatic microsome stability (% remaining after 1 hour) [5]: 86.5% | Mouse plasma stability (% remaining after 3 hours) [6]: 97% | Human plasma stability (% remaining after 3 hours) [7]: > 99% | Papp at 18 h, 100 μM [8]: 16.4 ×10⁻⁶ cm/s | fold higher inhibition for IL-4 activity than IL-13 activity [9]: 10 fold | EC50 [10]: 3.1 µM

N#Cc1c(-c2ccc(O)c(O)c2)cc(-c2ccc(N)cc2)[nH]c1=N [Compound 14, 6-(4-aminophenyl)-4-(3,4-dihydroxyphenyl)-2-imino-1,2-dihydropyridine-3-carbonitrile]
% Inhibition [1]: 94.5% and 94.5 ± 1.58% and 94.5 ± 1.68% | inhibition at 10 µM [1]: > 80% | EC50 [1, 16]: 0.67 ± 0.28 µM | EC50 ([1]; values in text, read-out: potency (EC50 of inhibition)): 0.627 µM | Hill coefficient [1]: 1.69±0.25 | fold less potent for IL-13 than for IL-4 ([11]; IL-13 EC50 versus IL-4 EC50): 100 fold | EC50 ([11]; soluble IL-13 mediated signaling, HEK Blue IL-4/IL-13 reporter assay): 18.2 µM | ΔTm at 2 µM [12]: 1.66 °C | EC50 ([13]; Homo sapiens, THP-1 monocytes, western blot, normalized to STAT-6, read-out: EC50 of inhibition of STAT-6 phosphorylation): 0.686 µM | STAT-6 levels ([13]; total STAT-6, THP-1 cells): not impacted | inhibition at 0.5 µM ([2]; Homo sapiens, Ramos): 31.4% | inhibition of phosphorylation of STAT-6 ([2]; Ramos B lymphocytes): minimum inhibition | Cytotoxicity in B16-F10 cells (24 hours) [4]: no toxicity | Cytotoxicity in B16-F10 cells (24 hours) ([4]; listed as Analog 14): n.s. < 25 μM | Mouse hepatic microsome stability (% remaining after 1 hour) [5]: 75.4% | Mouse hepatic microsome stability (% remaining after 1 hour) ([5]; listed as Analog 14): 75.4% | Mouse plasma stability (% remaining after 3 hours) [6]: > 99% | Mouse plasma stability (% remaining after 3 hours) ([6]; listed as Analog 14): >99%/>99% | Human plasma stability (% remaining after 3 hours) ([7]; listed as Analog 14): >99%/>99% | Papp at 18 h, 100 μM [8]: 6.2 ×10⁻⁶ cm/s | Abs650 [14]: 0.05948 ± 0.000642 | STAT-6 phosphorylation by immunofluorescence ([15]; 500 nM): significant reduction in STAT-6 phosphorylation | STAT-6 phosphorylation by immunofluorescence ([15]; 5 μM): almost no visible STAT-6 phosphorylation
